# Source: paper PMC6408518, “Structure guided design of an antibacterial peptide that targets UDP-N-acetylglucosamine acyltransferase” (Scientific Reports, 2019)
# Several values for one entry are separate records, joined by “and”; a condition that tells them apart may be missing. Equal entries are not always repeated. Where a SMILES comes first, the peptide text is derived from it. Where no end group is shown, it is not given here.
# Target: T1, E. coli LpxA (Escherichia coli, UniProt P0A722)
# Test: LpxA acyltransferase inhibition assay ([α-32P]UDP-GlcNAc conversion, TLC)
# Format: biochemical
# Design: made in house; host or cells: E. coli BL21(DE3)/pLysE/pTO1
# Conditions: 1 µM UDP-GlcNAc, 1 µM R-3-hydroxymyristoyl-ACP, 1 nM LpxA, 30 °C, 10% DMSO; SD of triplicates
# Method: The peptides were assayed for acyl transferase inhibitory activity under conditions where the concentrations of UDP-GlcNAc and R-3-hydroxymyristoyl-ACP were 1 µM each. […] Peptide CR21 and CR23 still have good inhibitory potential of 10 μM albeit lower than peptide CR20.
# The LpxA enzymatic reaction monitors the conversion of [α-^32P]UDP-GlcNAc to [α-^32P]UDP-3-O-(R-3-hydroxymyristoyl)- GlcNAc. The assay components consist of 40 mM HEPES buffer, pH 8, 1 mg/ml BSA, 1 μM R-3-hydroxymyristoyl-ACP, and 1 μM [α-^32P]UDP-GlcNAc (2 × 10^6 cpm/nmol). […] The final concentration of DMSO was adjusted to 10% to match the peptide solvent in all enzymatic assays.
# The reactions were started by the addition of 1 nM of LpxA and incubated at 30 °C for a maximum of 10 min. Three or four time points were collected during this time. Termination of the reaction was accomplished by the addition of 1 μl portions onto a silica thin layer chromatography (TLC) plate. The TLC plates were air dried for 10 min before developing in chloroform/methanol/water/acetic acid (25:15:4:2, v/v). Plates were exposed to PhosphorImager screens overnight, and the data were evaluated with Molecular Dynamics PhosphorImager equipped with ImageQuant software. […] To determine the IC50 at 30 °C, the data were fit to the following equations,1 vi/vc=IC50/(I+IC50) or1a %activity=100/(1+I/IC50) vi represents the initial rate, at given concentrations of inhibitor, vc represents the initial velocity of the control reaction without inhibitor, and I represents the inhibitor concentration. The IC50 determination represents the concentration of inhibitor needed to inhibit 50% of the enzyme activity.
# T1 sequence (P0A722 whole entry): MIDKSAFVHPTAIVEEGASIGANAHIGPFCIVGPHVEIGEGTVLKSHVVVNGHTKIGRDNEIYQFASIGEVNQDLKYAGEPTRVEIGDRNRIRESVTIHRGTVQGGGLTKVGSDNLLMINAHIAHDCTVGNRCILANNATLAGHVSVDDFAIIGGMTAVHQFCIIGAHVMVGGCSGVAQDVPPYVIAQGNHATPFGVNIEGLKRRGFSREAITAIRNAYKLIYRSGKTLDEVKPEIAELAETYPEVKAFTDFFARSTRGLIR
row,Molecule,IC50
1,SSGWMLDPIAGKW [CR22],9 ± 2.2 µM
2,"WMLDPI [CR25, WMLDPI]",> 100 µM
3,GWMLDPIAGKWSR [CR19],0.077 ± 0.003 µM
4,"CSCC[C@H](NC(=O)[C@@H](N)Cc1c[nH]c2ccccc12)C(=O)N[C@@H](CC(C)C)C(=O)N[C@@H](CC(=O)O)C(=O)O [CR26, WMLD] (H-WMLD-OH)",> 100 µM
5,GWMLDPIA [CR24],> 100 µM
6,SSGWMLDPIAGKWS [CR21],12 ± 1.4 µM
7,WMLDPIAGKWSR [CR20],~0.05 µM and 0.05 µM
8,GWMLDPIAGKW [CR23],10 ± 0.3 µM

# Test system: E. coli
# Test: not given
# Conditions: peptide expressed fused to GST in E. coli; cited from earlier work
row,Molecule,Bacterial growth
1,SSGWMLDPIAGKWSR [Peptide 920],inhibited bacterial growth

# Target: T1, E. coli LpxA
# Test: not given
# Conditions: previous enzymatic evidence; cited from earlier work
row,Molecule,Mode of inhibition
1,SSGWMLDPIAGKWSR [Peptide 920],largely competitive with respect to ACP
